In the oligonucleotide strings, read from the 5' end, every base follows the letter of its sugar. An asterisk marks phosphorothioate; unmarked linkages are phosphodiester. Other units and linkages are bracketed, terminal groups are in braces. A string of capitals states the bases alone. d = 2'-deoxy (DNA)
Each substance was assayed against T1, TLR3 (Homo sapiens, UniProt O15455) (assay: HEK-TLR3 NF-κB-luciferase reporter, poly(I:C) stimulation). Details: 500 nM ASOs/ODNs, poly(I:C) 1 μg/ml.
T1 sequence (O15455 24-904): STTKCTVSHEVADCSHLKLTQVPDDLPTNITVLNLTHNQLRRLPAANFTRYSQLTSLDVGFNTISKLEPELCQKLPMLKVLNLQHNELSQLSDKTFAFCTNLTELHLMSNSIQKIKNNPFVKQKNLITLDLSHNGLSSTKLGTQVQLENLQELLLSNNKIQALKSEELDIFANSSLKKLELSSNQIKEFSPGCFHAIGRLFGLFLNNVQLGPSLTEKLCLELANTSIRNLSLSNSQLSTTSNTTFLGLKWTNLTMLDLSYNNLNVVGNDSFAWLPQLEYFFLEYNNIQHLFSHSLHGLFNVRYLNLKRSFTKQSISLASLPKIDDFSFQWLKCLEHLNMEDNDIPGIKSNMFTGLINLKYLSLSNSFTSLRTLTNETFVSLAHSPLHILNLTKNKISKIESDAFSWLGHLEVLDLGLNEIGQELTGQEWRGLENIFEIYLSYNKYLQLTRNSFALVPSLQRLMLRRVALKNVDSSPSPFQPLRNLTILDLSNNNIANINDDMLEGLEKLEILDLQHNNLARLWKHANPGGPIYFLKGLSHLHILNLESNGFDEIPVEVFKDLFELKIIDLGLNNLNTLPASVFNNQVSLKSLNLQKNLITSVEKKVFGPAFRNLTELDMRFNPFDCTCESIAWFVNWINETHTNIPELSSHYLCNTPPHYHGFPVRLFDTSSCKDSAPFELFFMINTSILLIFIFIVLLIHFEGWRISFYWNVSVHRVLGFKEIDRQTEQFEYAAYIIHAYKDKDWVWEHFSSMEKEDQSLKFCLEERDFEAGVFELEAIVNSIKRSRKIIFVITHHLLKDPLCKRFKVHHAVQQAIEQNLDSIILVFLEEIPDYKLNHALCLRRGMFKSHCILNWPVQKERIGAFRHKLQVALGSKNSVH
Format: cell-based
Set-up: host or cells: HEK-Blue hTLR3 (HEK293)

Substance | inhibition of polyI:C sensing by TLR3 at 500 nM (in words)
T*G*C* T*T*G* A*C*A* T*C*C* T*G*G* A*G*G* G*G*T* T*G*T (TGCTTGACATCCTGGAGGGGTTGT; DNA, all phosphorothioate, methylation of C not given here) [IRS957, reference compound] | blocked polyL:C sensing
T*G*C* T*T*G* C*A*A* G*C*T* T*G*C* A*A*G* C*A (TGCTTGCAAGCTTGCAAGCA; DNA, all phosphorothioate, methylation of C not given here) [IRS661, reference compound] | blocked polyL:C sensing
T*T*C* A*A*A* T*T*C* A*A*A* T*T*C* A*A*A* T*T*C* A*A*A (dT*dT*dC*dA*dA*dA*dT*dT*dC*dA*dA*dA*dT*dT*dC*dA*dA*dA*dT*dT*dC*dA*dA*dA) [C151, reference compound] | only partially reduced polyL:C-dependent TLR3 activation

Same assay, conditions: 2 μM 3-mer DNA PS, 500 ng/ml polyI:C

Substance | inhibition of TLR3 sensing by 3-mer DNA PS oligos
dT*dA*dC [TAC] | strongest DNA 3-mer

Same assay, conditions: 3-mers DNA PS 45 min, then 500 ng/ml polyI:C overnight, NF-κB-luciferase normalised to polyI:C only (Ligand 1.000, NT 0.000)

Substance | TLR3 2uM
dA*dA*dT [AAT] | 0.877
dA*dC*dT [ACT] | 0.818
dA*dG*dT [AGT] | 0.865
dA*dT*dA [ATA] | 0.827
dA*dT*dC [ATC] | 0.834
dA*dT*dG [ATG] | 0.849
dA*dT*dT [ATT] | 1.012
dC*dA*dT [CAT] | 0.828
dC*dC*dT [CCT] | 0.914
dC*dG*dT [CGT] | 0.755
dC*dT*dA [CTA] | 0.864
dC*dT*dC [CTC] | 0.911
dC*dT*dG [CTG] | 0.843
dC*dT*dT [CTT] | 0.901
dG*dA*dT [GAT] | 0.864
dG*dC*dT [GCT] | 0.998
dG*dG*dT [GGT] | 0.959
dG*dT*dA [GTA] | 0.818
dG*dT*dC [GTC] | 0.914

Substance | TLR3 2uM
dG*dT*dG [GTG] | 0.929
dG*dT*dT [GTT] | 1.009
dT*dA*dA [TAA] | 0.968
dT*dA*dC [TAC] | 0.704
dT*dA*dG [TAG] | 0.769
dT*dA*dT [TAT] | 0.877
dT*dC*dA [TCA] | 0.792
dT*dC*dC [TCC] | 0.868
dT*dC*dG [TCG] | 0.931
dT*dC*dT [TCT] | 1.230
dT*dG*dA [TGA] | 0.743
dT*dG*dC [TGC] | 0.795
dT*dG*dG [TGG] | 0.773
dT*dG*dT [TGT] | 0.884
dT*dT*dA [TTA] | 0.855
dT*dT*dC [TTC] | 0.928
dT*dT*dG [TTG] | 0.990
dT*dT*dT [TTT] | 1.139

The substances below were run against T2, human TLR7 (Homo sapiens, UniProt Q9NYK1) (assay: HEK-TLR7 NF-κB-luciferase reporter, R848 stimulation). Details: HEK-TLR7; 2 μM 3-mer DNA on a PS backbone; R848.
T2 construct: HA; host or cells: 293XL-hTLR7-HA (HEK293)
T2 sequence (Q9NYK1 27-1049): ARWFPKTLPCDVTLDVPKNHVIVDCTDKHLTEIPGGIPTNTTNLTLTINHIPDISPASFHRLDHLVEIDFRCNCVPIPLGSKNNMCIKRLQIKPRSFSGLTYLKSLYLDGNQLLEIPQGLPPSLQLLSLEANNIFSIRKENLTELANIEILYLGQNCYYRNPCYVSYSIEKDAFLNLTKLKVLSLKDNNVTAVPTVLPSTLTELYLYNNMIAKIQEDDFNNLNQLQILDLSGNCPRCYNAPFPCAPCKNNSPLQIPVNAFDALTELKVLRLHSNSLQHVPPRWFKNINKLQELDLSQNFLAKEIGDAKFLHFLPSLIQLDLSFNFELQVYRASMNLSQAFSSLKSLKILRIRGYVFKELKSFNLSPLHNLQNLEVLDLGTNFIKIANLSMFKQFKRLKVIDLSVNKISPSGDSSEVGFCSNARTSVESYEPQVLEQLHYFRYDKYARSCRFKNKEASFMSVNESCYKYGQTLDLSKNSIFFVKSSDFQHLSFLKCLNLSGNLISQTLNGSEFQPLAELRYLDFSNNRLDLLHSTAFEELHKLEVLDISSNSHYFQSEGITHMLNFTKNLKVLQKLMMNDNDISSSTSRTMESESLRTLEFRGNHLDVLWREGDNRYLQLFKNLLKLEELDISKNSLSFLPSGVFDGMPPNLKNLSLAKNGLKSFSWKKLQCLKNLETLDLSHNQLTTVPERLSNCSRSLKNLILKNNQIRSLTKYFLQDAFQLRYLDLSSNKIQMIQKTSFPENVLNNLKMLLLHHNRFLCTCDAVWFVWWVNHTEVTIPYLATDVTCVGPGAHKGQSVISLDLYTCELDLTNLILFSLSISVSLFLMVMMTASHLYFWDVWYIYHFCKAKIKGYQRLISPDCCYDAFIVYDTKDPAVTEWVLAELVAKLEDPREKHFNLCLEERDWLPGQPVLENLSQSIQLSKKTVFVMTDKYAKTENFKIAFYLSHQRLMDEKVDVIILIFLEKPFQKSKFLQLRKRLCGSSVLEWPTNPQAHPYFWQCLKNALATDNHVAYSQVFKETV
Format: cell-based
Experimental: In such examples, inhibition of TLR7 activity can be identified by observation of an overall decreased TLR7 response of the cell population, or a lower proportion of cells having TLR7-positive activity as compared to positive control condition in which cells are treated with TLR7 agonist in the absence of the oligonucleotide (or in the presence of an appropriate control inhibitory agent). In one example, 293XLhTLR7 (referred to as HEK-TLR7) cells are transfected with pNF-κB-Luc4 reporter, incubated with an oligonucleotide, and then stimulated with R848. TLR7 activity can be determined by a luciferase assay, which measures activated NF-κB by luminescence. TLR7 activity can also be analysed by measuring cytokine levels, for example by ELISA. […] TLR7 activity may then be assessed by the gene or protein expression of TLR7-responsive genes, such as Tnfα and Oas3.
For cGAS stimulations, cells were treated for indicated duration with ASOs, prior to transfection with ISD70 (human cells) or ISD45 (mouse cells) (the ASOs were not washed off prior to ISD transfection unless otherwise indicated). The cGAS ligands ISD45 (Stetson and Medzhitov, 2006) and ISD70 (also known as VACV-70 (Unterholzner et al., 2010)) (Table 1) were resuspended as follows: 5 1d of sense and 5 μl of antisense strands at 10 μg/μl were added to 90 μl PBS under sterile conditions, heated at 75° C. for 30 min, prior to letting cool down at room temperature and aliquoting (stock at 1 μg/1 l). The ISDs were transfected at a concentration of […] at a ratio of 1 μg:1 μl with Lipofectamine 2000 in Opti-MEM (Thermo Fisher Scientific). HEK-TLR3, HEK-TLR7 and […] were treated with indicated concentration of ASOs for 20-50 min, prior to stimulation with poly(I:C) (Invivogen), R848 (Invivogen), Motolimod (MedChemExpress) and the Class B CpG oligonucleotides ODN 2006 (synthesised by IDT and resuspended in RNase-free TE buffer [Table 1]), respectively. The TLR2/1 agonist PAM3CSK4 (Invivogen), the TLR4 agonist lipopolysaccharide (Invivogen), the Class B CpG oligonucleotides ODN 1826 (synthesised by IDT and resuspended in RNase-free TE buffer), the mouse Sting agonist DMXAA (Cayman) and the human STING agonist (compound #3 from (Raanjulu et al., 2018), referred to as GSK herein—kind gift from Cancer Therapeutics CRC, Australia) were used at indicated concentrations. Aspirin (Sigma—A2093) was resuspended in pure medium to 10 mM, filter sterilised and added to the cells at 2 mM final. All ASOs were synthesised by Integrated DNA Technologies (IDT), and resuspended in RNase-free TE buffer, pH 8.0 (Thermo Fisher Scientific). Cell viability was assessed by adding 1× fresh resazurin solution to the wells (10λ solution made up with 7 mg resazurin [Sigma—R7017] dissolved in 3.5 ml PBS, sterile filtered at […]) for 4 h, prior to reading at with a Fluostar OPTIMA (BMG LABTECH) plate-reader (fluorescence: Excitation 535 nm, Emission 590); wells with medium only and 1× resazurin were used as blanks.
Following transfection, the cells were collected from the 6-wells and aliquoted into 96-wells, just before ASO and overnight TLR stimulation (as above described). Similarly, the LL171 cells expressing and ISRE-Luc reporter were treated overnight.

Substance | inhibition of TLR7 by 3-mer DNA PS oligos
dT*dC*dT [TCT] | two most potent DNA 3-mers inhibiting TLR7
dT*dT*dT [TTT] | two most potent DNA 3-mers inhibiting TLR7
